Source: patent publication EP1674457B1, “Derivatives of squaric acid with anti-proliferative activity” (GPC Biotech AG, priority 2004, dated 2006)
Read-outs that look alike come from different tables or passages of the source.

Experiments:
MCF7 [1] = test: IC50 determination by SRB assay (Example 62); format: cell-based
Procedure: (§1) 3,000-15,000 cells/well were exposed to the test compounds at a concentration of 1 µM for 48 hours, and cytotoxicty was measured using the SRB assay according to Shekan et al (J Natl Cancer Inst (1990) 82, 1107-112). Briefly, cells were plated in 96 well dishes 24 hours prior to compound addition. The assay was terminated with the addition of cold TCA to a final concentration of 10% and the plates were incubated for one hour at 4°C. The plates were then washed 5 times with water and 100µl of a Sulforhodamine B solution (4%) was added to each well. The plate was then incubated for 10 minutes at room temperature before removal of unbound dye by washing with 1% acetic acid. The bound dye was solubilized with 10 mM Trizma base and the absorbance read at OD570. Inhibitory activity of the compounds was calculated as % inhibition compared to cells treated with the solvent (DMSO). Table 2 represents the growth inhibitory activity of certain compunds of the invention across a number of tumor cell lines.
(§2) The assay was performed similar to example 61. However, test compounds were added at various concentrations, such as from 0.001 to about 0.1 µM, from 0.1 to about 10 µM, or from 1 to about 10 µM, as the need may be, in order to estimate the IC50 values. IC50 values were determined by plotting the percentage inhibitory activity for each concentration, fitting a curve using appropriate software and estimating the concentration at which 50% inhibition of growth would occur.

HCT-116 [2] = test: IC50 determination by SRB assay (Example 62); format: cell-based; conditions: HCY-116
Procedure: as §1, §2

SW-620 [3] = test: IC50 determination by SRB assay (Example 62); format: cell-based
Procedure: as §1, §2

MCF7 [4] = test: SRB assay, inhibition of tumor cell growth at 1 µM (Example 61); format: cell-based; conditions: 48 hours; for inhibition at 1 µM: Homo sapiens
Procedure: as §1

HCT-116 [5] = test: as above; format: cell-based; conditions: 48 hours; for inhibition at 1 µM: Homo sapiens
Procedure: as §1

PC-3 = test: as above; format: cell-based; conditions: 48 hours; for inhibition at 1 µM: Homo sapiens
Procedure: as §1

SW-620 [6] = test: as above; format: cell-based; conditions: 48 hours; for inhibition at 1 µM: Homo sapiens
Procedure: as §1

A2780 [7] = test: as above; format: cell-based, Human; conditions: 48 hours; for inhibition at 1 µM: Homo sapiens
Procedure: as §1

A-549 = test: as above; format: cell-based; conditions: for % Inhibition (1 µM): 48 hours; for inhibition at 1 µM: Homo sapiens, A549, 48 hours
Procedure: as §1

A2780 [8] = test: IC50 determination by SRB assay (Example 62); format: cell-based; conditions: Homo sapiens
Procedure: as §1, §2

Compound	IC50 (MCF7 [1]) [nM]	IC50 (HCT-116 [2]) [nM]	IC50 (SW-620 [3]) [nM]	% Inhibition (1 µM) (MCF7 [4]) [%]	% Inhibition (1 µM) (HCT-116 [5]) [%]	% Inhibition (1 µM) (PC-3) [%]	% Inhibition (1 µM) (SW-620 [6]) [%]	% Inhibition (1 µM) (A2780 [7]) [%]	% Inhibition (1 µM) (A-549) [%]	IC50 (MCF7 [1]; Homo sapiens) [nM]	IC50 (HCT-116 [2]; Homo sapiens, HCT-116) [nM]	IC50 (SW-620 [3]; Homo sapiens) [nM]	IC50 (A2780 [8]) [nM]	inhibition at 1 µM (MCF7 [4]) [%]	inhibition at 1 µM (HCT-116 [5]) [%]	inhibition at 1 µM (A-549) [%]	inhibition at 1 µM (PC-3) [%]	inhibition at 1 µM (SW-620 [6]) [%]	inhibition at 1 µM (A2780 [7]) [%]
3-[2-(4-Phenoxyphenyl)-ethylamino]-4-(pyridin-3-yl-amino)-cyclobut-3-ene-1,2-dione [SQ-5]	< 10000	< 100	< 2000	>50	>80	>50	0	>80	–	–	–	–	–	–	–	–	–	–	–
3-[4-Phenoxybenzylamino]-4-(pyridin-4-yl-amino)-cyclobut-3-ene-1,2-dione [SQ-34]	–	–	–	–	>20	>0	0	>20	0	–	–	–	–	–	–	–	–	–	–
3-[6-(3,4-Dichlorophenoxy)-hexylamino)]-4-(pyridin-4yl-amino)-3-cyclobutene-1,2-dione [SQ-15]	–	< 100	< 500	>20	>80	>50	>20	>80	>20	–	–	–	–	–	–	–	–	–	–
O=c1c(NCCCCCCOc2ccc(Cl)cc2)c(Nc2cccnc2)c1=O [SQ-1B]	–	–	–	–	–	–	–	–	–	< 10	< 20	< 2000	< 100	> 80	> 80	> 20	> 50	> 20	> 80
O=c1c(NCCCCCOc2ccc(Cl)cc2)c(Nc2cccnc2)c1=O [SQ-2]	–	–	–	–	–	–	–	–	–	< 20	< 20	< 10000	< 20	> 80	> 80	> 50	> 50	> 50	> 80
O=c1c(NCCCCCCOc2ccc(Cl)cc2)c(Nc2ccncc2)c1=O [SQ-7B]	–	–	–	–	–	–	–	–	–	< 100	< 100	–	< 100	–	> 80	–	> 50	> 50	> 80
O=c1c(NCCCCCOc2ccc(Cl)cc2)c(Nc2ccncc2)c1=O [SQ-8]	–	–	–	–	–	–	–	–	–	< 100	< 100	< 2000	–	> 80	> 80	> 5	> 50	> 20	> 80
O=c1c(NCCCCCCCCOc2ccc(Cl)cc2)c(Nc2ccncc2)c1=O [SQ-9]	–	–	–	–	–	–	–	–	–	< 500	–	< 2000	–	> 80	> 80	> 5	> 50	> 50	> 80
O=c1c(NCCCCOc2ccc(Cl)cc2)c(Nc2ccncc2)c1=O [SQ-10]	–	–	–	–	–	–	–	–	–	< 2000	< 2000	< 10000	–	> 50	> 50	0	–	> 20	> 50
O=c1c(NCCCCCCCOc2ccc(Cl)cc2)c(Nc2ccncc2)c1=O [SQ-11A]	–	–	–	–	–	–	–	–	–	< 100	< 100	< 2000	–	> 80	> 80	> 5	> 20	> 50	> 80
O=c1c(NCCCCCCCOc2ccccc2)c(Nc2ccncc2)c1=O [SQ-11B, 3-(7-Phenoxyheptylamino)-4-(pyridin-4yl-amino)-3-cyclobutene-1,2-dione]	–	–	–	–	–	–	–	–	–	< 20	< 20	< 500	–	> 80	> 80	> 50	> 50	> 50	> 80
Cc1ccc(OCCCCCCNc2c(Nc3ccncc3)c(=O)c2=O)cc1 [SQ-13]	–	–	–	–	–	–	–	–	–	–	< 100	< 2000	–	> 5	> 80	> 20	> 50	> 20	> 80
COc1ccc(OCCCCCCNc2c(Nc3ccncc3)c(=O)c2=O)cc1 [SQ-14]	–	–	–	–	–	–	–	–	–	–	< 100	< 2000	–	> 5	> 80	> 20	> 50	> 20	> 80
O=c1c(NCCc2ccc(Oc3ccccc3)cc2)c(Nc2ccncc2)c1=O [SQ-17, 3-[2-(4-Phenoxyphenyl)-ethylamino]-4-(pyridin-4-yl-amino)-cyclobut-3-ene-1,2-dione]	–	–	–	–	–	–	–	–	–	< 10000	< 20	< 500	< 100	–	> 80	> 50	> 50	> 20	> 80
O=c1c(NCCCCCCOc2ccc(C(F)(F)F)cc2)c(Nc2ccncc2)c1=O [SQ-18, 3-[6-(4-Trifluoromethylphenoxy)-hexylamino]-4-(pyridin-4-yl-amino)-cyclobut-3-ene-1,2-dione]	–	–	–	–	–	–	–	–	–	< 10000	–	< 2000	–	–	> 80	> 20	> 50	> 20	> 80
N#Cc1ccc(OCCCCCCNc2c(Nc3ccncc3)c(=O)c2=O)cc1 [SQ-19, 4-{6-[3,4-Dioxo-2-(pyridin-4-ylamino)-cyclobut-1-enylamino]-hexyloxy}-benzonitrile]	–	–	–	–	–	–	–	–	–	–	–	–	–	–	> 5	> 0	> 5	> 5	> 50
O=c1c(NCCCCCCNc2ccc(Cl)cc2)c(Nc2ccncc2)c1=O [SQ-25, 3-[6-(4-Chlorophenylamino)-hexylamino]-4-(pyridin-4-yl-amino)-cyclobut-3-ene-1,2-dione]	–	–	–	–	–	–	–	–	–	–	< 500	< 2000	–	> 5	> 80	> 20	> 50	> 20	> 80
O=c1c(NCCCCCCNc2ccc(Cl)cc2)c(Nc2cccnc2)c1=O [SQ-26, 3-[6-(4-Chlorophenylamino)-hexylamino]-4-(pyridin-3-yl-amino)-cyclobut-3-ene-1,2-dione]	–	–	–	–	–	–	–	–	–	–	< 100	< 2000	–	> 5	> 80	> 50	> 50	> 20	> 80
O=c1c(NCc2ccc(Oc3ccc(Cl)cc3)cc2)c(Nc2cccnc2)c1=O [SQ-30, 3-[4-(4-Chlorophenoxy)-benzylamino]-4-(pyridin-3-yl-amino)-cyclobut-3-ene-1,2-dione]	–	–	–	–	–	–	–	–	–	< 500	< 2000	> 10000	–	> 80	> 80	> 50	> 20	> 20	> 80
O=c1c(NCc2cccc(Oc3ccc(Cl)cc3)c2)c(Nc2cccnc2)c1=O [SQ-33, 3-[3-(4-Chlorophenoxy)-benzylamino]-4-(pyridin-3-yl-amino)-cyclobut-3-ene-1,2-dione]	–	–	–	–	–	–	–	–	–	–	–	–	–	0	> 50	0	0	> 5	> 20
